pIC50: −log10 of the molar value.

For one assay, the target named is T1, HIV-integrase (Human immunodeficiency virus type 1 group M subtype B, UniProt P12497).
T1 construct: Recombinant integrase (0.26 ng) was incubated with the beads
Nature of the assay: HIV-Integrase Inhibition Activity (SPA bead integration assay with P33 labeled target DNA). The assay is classed as biochemical. The following applies: in vitro activity, recombinant integrase, class symbols. The gist of the method: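 Biotinylated substrate DNA on streptavidin SPA beads loaded with recombinant integrase (90 min, 37° C), washed, then inhibitor plus 0.1 fmol P33-labeled target DNA added. Reaction stopped with 10 mM EDTA; integration measured as CPM by scintillation, giving IC50 ranks.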
With `CC1(C)[C@@H]2CC[C@@]1(C)[C@@H](NS(C)(=O)=O)c1nc(C(=O)NCc3ccc(F)cc3)c(O)c(=O)n1C2` [Example 185, (7S,10R,11R)—N-(4-Fluorobenzyl)-3-hydroxy-10,12,12-trimethyl-11-((methylsulfonyl)amino)-4-oxo-6,7,8,9,10,11-hexahydro-4H-7,10-methanopyrimido[1,2-a]azocine-2-carboxamide], the pIC50 was below 7.00.

Still in this assay, the particulars now being: recombinant integrase, class symbols; read-out: in vitro activity.
On to `Cc1cc(CNC(=O)c2nc3n(c(=O)c2O)CC2CCC3(NC(=O)C(C)(C)n3cc(C(=O)N(C)C)nn3)CC2)ccc1F` [Example 287, 7,10-Ethanopyrimido[1,2-a]azepine-2-carboxamide, 10-[[2-[4-[(dimethylamino)carbonyl]-1H-1,2,3-triazol-1-yl]-2-methyl-1-oxopropyl]amino]-N-[(4-fluoro-3-methylphenyl)methyl]-4,6,7,8,9,10-hexahydro-3-hydroxy-4-oxo-], for which the pIC50 is above 8.00.

Regarding `COC[C@H]1CCCN1C(=O)C(=O)NC12CCC(CC1)Cn1c2nc(C(=O)NCc2ccc(F)cc2)c(O)c1=O` [Example 88, N-(4-Fluorobenzyl)-3-hydroxy-10-((((2R)-2-(methoxymethyl)-1-pyrrolidinyl)(oxo)acetyl)amino)-4-oxo-4,6,7,8,9,10-hexahydro-7,10-ethanopyrimido[1,2-a]azepine-2-carboxamide], the pIC50 is above 8.00. For `CC(=O)N1CC[C@H]1C(=O)NC12CCC(CC1)Cn1c2nc(C(=O)NCc2ccc(F)cc2)c(O)c1=O` [Example 267, 7,10-Ethanopyrimido[1,2-a]azepine-2-carboxamide, 10-[[[(2S)-1-acetyl-2-azetidinyl]carbonyl]amino]-N-[(4-fluorophenyl)methyl]-4,6,7,8,9,10-hexahydro-3-hydroxy-4-oxo-], the pIC50 is above 8.00. `NC12CCC(Cn3c1nc(C(=O)NCc1ccc(F)cc1)c(O)c3=O)OC2` (stereo not drawn) [Example 220, 10-Amino-N-(4-fluorobenzyl)-3-hydroxy-4-oxo-4,6,7,8,9,10-hexahydro-7,10-(epoxymethano)pyrimido[1,2-a]azepine-2-carboxamide]: the pIC50 was 7.00 to 8.00.

Regarding `O=C(NC12CCC(CC1)Cn1c2nc(C(=O)NCc2ccc(F)cc2)c(O)c1=O)C(=O)N1CCN(C(=O)N2CCOCC2)CC1` [Example 79, N-(4-Fluorobenzyl)-3-hydroxy-10-(((4-(4-morpholinylcarbonyl)-1-piperazinyl)(oxo)acetyl)amino)-4-oxo-4,6,7,8,9,10-hexahydro-7,10-ethanopyrimido[1,2-a]azepine-2-carboxamide], the pIC50 was above 8.00.

With `COc1cccc(CNC(=O)c2nc3n(c(=O)c2O)CC2CCC3(NC(=O)C(=O)N(C)C)CC2)c1OC` [Example 381], the pIC50 is above 8.00.

Take `Cc1c(CN(C)C(=O)C(=O)N(C)C23CCC(CC2)Cn2c3nc(C(=O)NCc3ccc(F)cc3)c(O)c2=O)cnn1C` [Example 171, N-((1,5-Dimethyl-1H-pyrazol-4-yl)methyl)-N′-(2-((4-fluorobenzyl)carbamoyl)-3-hydroxy-4-oxo-6,7,8,9-tetrahydro-7,10-ethanopyrimido[1,2-a]azepin-10(4H)-yl)-N,N′-dimethylethanediamide]: the pIC50 is above 8.00.

With `O=C(NCc1ccc(F)cc1)c1nc2n(c(=O)c1O)CC1CCC2(NC(=O)C2CCOCC2)CC1` [Example 32, N-(4-Fluorobenzyl)-3-hydroxy-4-oxo-10-((tetrahydro-2H-pyran-4-ylcarbonyl)amino)-4,6,7,8,9,10-hexahydro-7,10-ethanopyrimido[1,2-a]azepine-2-carboxamide], the pIC50 is above 8.00. As to `CN(C)C(=O)C(=O)NC12CCC(CC1)Cn1c2nc(C(=O)NCc2nc3ccccc3s2)c(O)c1=O` [Example 360], the pIC50 was above 8.00.

Consider `CN(C)C(=O)C(=O)NC12CCC(CC1)Cn1c2nc(C(=O)NCCOc2ccccc2)c(O)c1=O` [Example 355], for which the pIC50 is above 8.00. For the molecule `CCOC(=O)[C@@H]1CCCN1C(=O)C(=O)NC12CCC(CC1)Cn1c2nc(C(=O)NCc2ccc(F)cc2)c(O)c1=O` [Example 92, Ethyl 1-(((2-((4-fluorobenzyl)carbamoyl)-3-hydroxy-4-oxo-6,7,8,9-tetrahydro-7,11-ethanopyrimido[1,2-a]azepin-10(4H)-yl)amino) (oxo)aceyl)-L-prolinate], the pIC50 was above 8.00. For the molecule `CN(C)C(=O)C(=O)NC12CCC(Cn3c1nc(C(=O)NCc1ccc(F)cc1)c(O)c3=O)OC2` (stereo not drawn) [Example 222, N′-(2-((4-Fluorobenzyl)carbamoyl)-3-hydroxy-4-oxo-6,7,8,9-tetrahydro-7,10-(epoxymethano)pyrimido[1,2-a]azepin-10(4H)-yl)-N,N-dimethylethanediamide], the pIC50 is above 8.00.

Take `CN(C)C(=O)C(=O)NC12CCC(CC1)Cn1c2nc(C(=O)NCc2ccc(N(C)C)cc2)c(O)c1=O` [Example 378]: the pIC50 is 7.00 to 8.00. On the same count and under the same terms, next, `Cc1cc(C(=O)N2CCN(C(=O)C(=O)NC34CCC(CC3)Cn3c4nc(C(=O)NCc4ccc(F)cc4)c(O)c3=O)CC2)no1` [Example 139, N-(4-Fluorobenzyl)-3-hydroxy-10-(((4-((5-methyl-3-isoxazolyl)carbonyl)-1-piperazinyl)(oxo)acetyl)amino)-4-oxo-4,6,7,8,9,10-hexahydro-7,10-ethanopyrimido[1,2-a]azepine-2-carboxamide]: above 8.00. As for `COCCOC12CCC(CC1)Cn1c2nc(C(=O)NCc2ccc(F)cc2)c(O)c1=O` [Example 225, 7,10-Ethanopyrimido[1,2-a]azepine-2-carboxamide, N-[(4-fluorophenyl)methyl]-4,6,7,8,9,10-hexahydro-3-hydroxy-10-(2-methoxyethoxy)-4-oxo-], the pIC50 was above 8.00. On the same count and under the same terms, the figure for `CN(C)C(=O)C(=O)NC12CCC(CC1)Cn1c2nc(C(=O)NCc2cccc(-n3cccc3)c2)c(O)c1=O` [Example 126, N′-(3-Hydroxy-4-oxo-2-((3-(1H-pyrrol-1-yl)benzyl)carbamoyl)-6,7,8,9-tetrahydro-7,10-ethanopyrimido[1,2-a]azepin-10(4H)-yl)-N,N-dimethylethanediamide] is above 8.00. On the same count and under the same terms, the figure for `CS(=O)(=O)NC12CCC(CC1)n1c2nc(C(=O)NCc2ccc(F)cc2)c(O)c1=O` [Example 13, 6,9-ethano-4H-pyrido[1,2-a]pyrimidine-2-carboxamide, N-[(4-fluorophenyl)methyl]-6,7,8,9-tetrahydro-3-hydroxy-9-[(methylsulfonyl)amino]-4-oxo-] is above 8.00; for `O=C(NC12CCC(CC1)Cn1c2nc(C(=O)NCc2ccc(F)cc2)c(O)c1=O)c1ccc2nccn2c1` [Example 239, 7,10-Ethanopyrimido[1,2-a]azepine-2-carboxamide, N-[(4-fluorophenyl)methyl]-4,6,7,8,9,10-hexahydro-3-hydroxy-10-[(imidazo[1,2-a]pyridin-6-ylcarbonyl)amino]-4-oxo-] it is above 8.00; for `Cc1cc(C(=O)NC23CCC(CC2)Cn2c3nc(C(=O)NCc3ccc(F)cc3)c(O)c2=O)no1` [Example 28, N-(4-Fluorobenzyl)-3-hydroxy-10-(((5-methyl-3-isoxazolyl)carbonyl)amino)-4-oxo-4,6,7,8,9,10-hexahydro-7,10-ethanopyrimido[1,2-a]azepine-2-carboxamide] it is above 8.00. On the same count and under the same terms, the figure for `Cc1ccc(CNC(=O)c2nc3n(c(=O)c2O)CC2CCC3(NC(=O)C(=O)N(C)C)CC2)o1` [Example 234] is above 8.00; for `Cc1cc(CNC(=O)c2nc3n(c(=O)c2O)CC2CCC3(N(C)C(=O)C(=O)N(C)Cc3cnn(C)c3C)CC2)ccc1F` [Example 172, N-((1,5-Dimethyl-1H-pyrazol-4-yl)methyl)-N′-(2-((4-fluoro-3-methylbenzyl)carbamoyl)-3-hydroxy-4-oxo-6,7,8,9-tetrahydro-7,10-ethanopyrimido[1,2-a]azepin-10(4H)-yl)-N,N′-dimethylethanediamide] it is above 8.00; for `CC(=O)N1[C@@H]2C[C@@H]2C[C@H]1C(=O)NC12CCC(CC1)Cn1c2nc(C(=O)NCc2ccc(F)cc2)c(O)c1=O` [Example 270, 7,10-Ethanopyrimido[1,2-a]azepine-2-carboxamide, 10-[[[(1R,3S,5R)-2-acetyl-2-azabicyclo[3.1.0]hex-3-yl]carbonyl]amino]-N-[(4-fluorophenyl)methyl]-4,6,7,8,9,10-hexahydro-3-hydroxy-4-oxo-] it is above 8.00.

With `Cn1ccnc1CN1CCN(C(=O)C(=O)NC23CCC(CC2)Cn2c3nc(C(=O)NCc3ccc(F)cc3)c(O)c2=O)CC1` [Example 137, N-(4-Fluorobenzyl)-3-hydroxy-10-(((4-((1-methyl-1H-imidazol-2-yl)methyl)-1-piperazinyl)(oxo)acetyl)amino)-4-oxo-4,6,7,8,9,10-hexahydro-7,10-ethanopyrimido[1,2-a]azepine-2-carboxamide], the pIC50 was above 8.00. For the molecule `Cc1cc(CNC(=O)c2nc3n(c(=O)c2O)CC2CCC3(NC(=O)C(C)(C)n3cc(C(=O)O)nn3)CC2)ccc1F` [Example 285, 1H-1,2,3-Triazole-4-carboxylic acid, 1-[2-[[2-[[[(4-fluoro-3-methylphenyl)methyl]amino]carbonyl]-6,7,8,9-tetrahydro-3-hydroxy-4-oxo-7,10-ethanopyrimido[1,2-a]azepin-10(4H)-yl]amino]-1,1-dimethyl-2-oxoethyl]-], the pIC50 was above 8.00. Same read-out and setting: next, `O=C(NC12CCC(CC1)Cn1c2nc(C(=O)NCc2ccc(F)cc2)c(O)c1=O)C(=O)N1CCOCC1` [Example 60, N-(4-Fluorobenzyl)-3-hydroxy-10-((4-morpholinyl(oxo)acetyl)amino)-4-oxo-4,6,7,8,9,10-hexahydro-7,10-ethanopyrimido[1,2-a]azepine-2-carboxamide]: above 8.00; `O=C(NC12CCC(CC1)Cn1c2nc(C(=O)NCc2ccc(F)cc2)c(O)c1=O)C(=O)N1CCN(CCOCCO)CC1` [Example 75, N-(4-Fluorobenzyl)-3-hydroxy-10-(((4-(2-(2-hydroxyethoxy)ethyl)-1-piperazinyl)(oxo)acetyl)amino)-4-oxo-4,6,7,8,9,10-hexahydro-7,10-ethanopyrimido[1,2-a]azepine-2-carboxamide]: above 8.00.

The values are drawn from patent publication US8129398B2 (priority 2008, dated 2012).
